Experimental data: ChEMBL document CHEMBL1155901, “Sialyl alpha(2-->3) lactose clusters using carbosilane dendrimer core scaffolds as influenza hemagglutinin blockers” (Bioorg Med Chem Lett, 2008)
Calls of active or inactive are those of the source. The calls are words filed in the database; no cut-off is given here.

Legend:
Type in all cases: functional, organism-based
Influenza A virus H3N2 [1] = test: Inhibition of hemagglutinination in human influenza virus A/Aich/2/68 (H3N2) infected in bovine erythrocytes; settings: Influenza A virus (A/Aichi/2/1968(H3N2))
Influenza A virus = test: Inhibition of hemagglutinination in human influenza virus A/PR/8/34 (H1N1) infected in bovine erythrocytes; settings: A/Puerto Rico/8/1934(H1N1)
Influenza A virus H3N2 [2] = test: Inhibition of hemagglutinination in human influenza virus A/Memphis/1/71 (H3N2) infected in bovine erythrocytes; settings: Influenza A virus (A/Memphis/1/1971(H3N2))

SMILES | Activity (Influenza A virus H3N2 [1]) | Activity (Influenza A virus) | Activity (Influenza A virus H3N2 [2])
CC(=O)N[C@H]1[C@H]([C@H](O)[C@H](O)CO)O[C@@](O[C@H]2[C@@H](O)[C@@H](CO)O[C@H](O[C@H]3[C@H](O)[C@@H](O)[C@H](OCCCCCSCCCCCC(=O)NCCC[Si](CCCNC(=O)CCCCCSCCCCCO[C@@H]4O[C@H](CO)[C@@H](O[C@H]5O[C@H](CO)[C@H](O)[C@H](O[C@]6(C(=O)O)C[C@H](O)[C@@H](NC(C)=O)[C@H]([C@H](O)[C@H](O)CO)O6)[C@H]5O)[C@H](O)[C@H]4O)(CCCNC(=O)CCCCCSCCCCCO[C@@H]4O[C@H](CO)[C@@H](O[C@H]5O[C@H](CO)[C@H](O)[C@H](O[C@]6(C(=O)O)C[C@H](O)[C@@H](NC(C)=O)[C@H]([C@H](O)[C@H](O)CO)O6)[C@H]5O)[C@H](O)[C@H]4O)c4ccccc4)O[C@@H]3CO)[C@@H]2O)(C(=O)O)C[C@@H]1O | Active | Active | –
C=CCCCO[C@@H]1O[C@H](CO)[C@@H](O[C@H]2O[C@H](CO)[C@H](O)[C@H](O[C@]3(C(=O)O)C[C@H](O)[C@@H](NC(C)=O)[C@H]([C@H](O)[C@H](O)CO)O3)[C@H]2O)[C@H](O)[C@H]1O | Active | Active | –
CC(=O)N[C@H]1[C@H]([C@H](O)[C@H](O)CO)O[C@@](O[C@H]2[C@@H](O)[C@@H](CO)O[C@H](O[C@H]3[C@H](O)[C@@H](O)[C@H](OCCCCCSCCC[Si](CCCSCCCCCO[C@@H]4O[C@H](CO)[C@@H](O[C@H]5O[C@H](CO)[C@H](O)[C@H](O[C@]6(C(=O)O)C[C@H](O)[C@@H](NC(C)=O)[C@H]([C@H](O)[C@H](O)CO)O6)[C@H]5O)[C@H](O)[C@H]4O)(CCCSCCCCCO[C@@H]4O[C@H](CO)[C@@H](O[C@H]5O[C@H](CO)[C@H](O)[C@H](O[C@]6(C(=O)O)C[C@H](O)[C@@H](NC(C)=O)[C@H]([C@H](O)[C@H](O)CO)O6)[C@H]5O)[C@H](O)[C@H]4O)CCC[Si](C)(C)CCC[Si](CCCSCCCCCO[C@@H]4O[C@H](CO)[C@@H](O[C@H]5O[C@H](CO)[C@H](O)[C@H](O[C@]6(C(=O)O)C[C@H](O)[C@@H](NC(C)=O)[C@H]([C@H](O)[C@H](O)CO)O6)[C@H]5O)[C@H](O)[C@H]4O)(CCCSCCCCCO[C@@H]4O[C@H](CO)[C@@H](O[C@H]5O[C@H](CO)[C@H](O)[C@H](O[C@]6(C(=O)O)C[C@H](O)[C@@H](NC(C)=O)[C@H]([C@H](O)[C@H](O)CO)O6)[C@H]5O)[C@H](O)[C@H]4O)CCCSCCCCCO[C@@H]4O[C@H](CO)[C@@H](O[C@H]5O[C@H](CO)[C@H](O)[C@H](O[C@]6(C(=O)O)C[C@H](O)[C@@H](NC(C)=O)[C@H]([C@H](O)[C@H](O)CO)O6)[C@H]5O)[C@H](O)[C@H]4O)O[C@@H]3CO)[C@@H]2O)(C(=O)O)C[C@@H]1O | Active | Active | –
CC(=O)N[C@H]1[C@H]([C@H](O)[C@H](O)CO)O[C@@](O[C@H]2[C@@H](O)[C@@H](CO)O[C@H](O[C@H]3[C@H](O)[C@@H](O)[C@H](OCCCCCSCCC[Si](CCCSCCCCCO[C@@H]4O[C@H](CO)[C@@H](O[C@H]5O[C@H](CO)[C@H](O)[C@H](O[C@]6(C(=O)O)C[C@H](O)[C@@H](NC(C)=O)[C@H]([C@H](O)[C@H](O)CO)O6)[C@H]5O)[C@H](O)[C@H]4O)(CCCSCCCCCO[C@@H]4O[C@H](CO)[C@@H](O[C@H]5O[C@H](CO)[C@H](O)[C@H](O[C@]6(C(=O)O)C[C@H](O)[C@@H](NC(C)=O)[C@H]([C@H](O)[C@H](O)CO)O6)[C@H]5O)[C@H](O)[C@H]4O)CCCSCCCCCO[C@@H]4O[C@H](CO)[C@@H](O[C@H]5O[C@H](CO)[C@H](O)[C@H](O[C@]6(C(=O)O)C[C@H](O)[C@@H](NC(C)=O)[C@H]([C@H](O)[C@H](O)CO)O6)[C@H]5O)[C@H](O)[C@H]4O)O[C@@H]3CO)[C@@H]2O)(C(=O)O)C[C@@H]1O | Active | Active | –
CC(=O)N[C@H]1[C@H]([C@H](O)[C@H](O)CO)O[C@@](O[C@H]2[C@@H](O)[C@@H](CO)O[C@H](O[C@H]3[C@H](O)[C@@H](O)[C@H](OCCCCCSCCCCCC(=O)NCCC[Si](CCCNC(=O)CCCCCSCCCCCO[C@@H]4O[C@H](CO)[C@@H](O[C@H]5O[C@H](CO)[C@H](O)[C@H](O[C@]6(C(=O)O)C[C@H](O)[C@@H](NC(C)=O)[C@H]([C@H](O)[C@H](O)CO)O6)[C@H]5O)[C@H](O)[C@H]4O)(CCCNC(=O)CCCCCSCCCCCO[C@@H]4O[C@H](CO)[C@@H](O[C@H]5O[C@H](CO)[C@H](O)[C@H](O[C@]6(C(=O)O)C[C@H](O)[C@@H](NC(C)=O)[C@H]([C@H](O)[C@H](O)CO)O6)[C@H]5O)[C@H](O)[C@H]4O)CCC[Si](C)(C)CCC[Si](CCCNC(=O)CCCCCSCCCCCO[C@@H]4O[C@H](CO)[C@@H](O[C@H]5O[C@H](CO)[C@H](O)[C@H](O[C@]6(C(=O)O)C[C@H](O)[C@@H](NC(C)=O)[C@H]([C@H](O)[C@H](O)CO)O6)[C@H]5O)[C@H](O)[C@H]4O)(CCCNC(=O)CCCCCSCCCCCO[C@@H]4O[C@H](CO)[C@@H](O[C@H]5O[C@H](CO)[C@H](O)[C@H](O[C@]6(C(=O)O)C[C@H](O)[C@@H](NC(C)=O)[C@H]([C@H](O)[C@H](O)CO)O6)[C@H]5O)[C@H](O)[C@H]4O)CCCNC(=O)CCCCCSCCCCCO[C@@H]4O[C@H](CO)[C@@H](O[C@H]5O[C@H](CO)[C@H](O)[C@H](O[C@]6(C(=O)O)C[C@H](O)[C@@H](NC(C)=O)[C@H]([C@H](O)[C@H](O)CO)O6)[C@H]5O)[C@H](O)[C@H]4O)O[C@@H]3CO)[C@@H]2O)(C(=O)O)C[C@@H]1O | Active | Active | Active
CC(=O)N[C@H]1[C@H]([C@H](O)[C@H](O)CO)O[C@@](O[C@H]2[C@@H](O)[C@@H](CO)O[C@H](O[C@H]3[C@H](O)[C@@H](O)[C@H](OCCCCCSCCC[Si](CCCSCCCCCO[C@@H]4O[C@H](CO)[C@@H](O[C@H]5O[C@H](CO)[C@H](O)[C@H](O[C@]6(C(=O)O)C[C@H](O)[C@@H](NC(C)=O)[C@H]([C@H](O)[C@H](O)CO)O6)[C@H]5O)[C@H](O)[C@H]4O)(CCCSCCCCCO[C@@H]4O[C@H](CO)[C@@H](O[C@H]5O[C@H](CO)[C@H](O)[C@H](O[C@]6(C(=O)O)C[C@H](O)[C@@H](NC(C)=O)[C@H]([C@H](O)[C@H](O)CO)O6)[C@H]5O)[C@H](O)[C@H]4O)c4ccccc4)O[C@@H]3CO)[C@@H]2O)(C(=O)O)C[C@@H]1O | Active | Active | –
CC(=O)N[C@H]1[C@H]([C@H](O)[C@H](O)CO)O[C@@](O[C@H]2[C@@H](O)[C@@H](CO)O[C@H](O[C@H]3[C@H](O)[C@@H](O)[C@H](OCCCCCSCCCCCC(=O)NCCC[Si](CCCNC(=O)CCCCCSCCCCCO[C@@H]4O[C@H](CO)[C@@H](O[C@H]5O[C@H](CO)[C@H](O)[C@H](O[C@]6(C(=O)O)C[C@H](O)[C@@H](NC(C)=O)[C@H]([C@H](O)[C@H](O)CO)O6)[C@H]5O)[C@H](O)[C@H]4O)(CCCNC(=O)CCCCCSCCCCCO[C@@H]4O[C@H](CO)[C@@H](O[C@H]5O[C@H](CO)[C@H](O)[C@H](O[C@]6(C(=O)O)C[C@H](O)[C@@H](NC(C)=O)[C@H]([C@H](O)[C@H](O)CO)O6)[C@H]5O)[C@H](O)[C@H]4O)CCCNC(=O)CCCCCSCCCCCO[C@@H]4O[C@H](CO)[C@@H](O[C@H]5O[C@H](CO)[C@H](O)[C@H](O[C@]6(C(=O)O)C[C@H](O)[C@@H](NC(C)=O)[C@H]([C@H](O)[C@H](O)CO)O6)[C@H]5O)[C@H](O)[C@H]4O)O[C@@H]3CO)[C@@H]2O)(C(=O)O)C[C@@H]1O | Active | Active | –
